# Measurements as given in patent US7951530B2, “Cyclic maltosylmaltose, cyclic maltosymaltose-forming enzyme, their preparation and uses” (Kabushiki Kaisha Hayashibara Seibutsu Kagaku Kenkyujo, priority 2003, dated 2011).
# Assays:
# pH stability of CMM = format: physicochemical; conditions: 4% (w/v) CMM, 100° C. for 24 hours
# Procedure: Eight milliliters of each solution was put in a glass tube, sealed and then heated at 100° C. for 24 hours. After cooling the solution, the degree of coloring and the purity of CMM were measured in the same manner in Experiment 17.
# [1] = Amino-carbonyl reaction with polypeptone; format: physicochemical; conditions: 5% (w/v) saccharide, 5% (w/v) polypeptone, 120° C., blank subtracted
# Procedure: As a control, an aqueous solution containing maltose and polypeptone was prepared in the same manner using maltose except for the powdery hydrous crystalline CMM. Four milliliters each of the solution was put in a glass tube, sealed and then heated at 120° C. for 30, 60, or 90 min. After cooling the solutions, the degrees of coloring of the solutions were measured to estimate the degree of amino-carbonyl reaction. As a blank test, a solution containing polypeptone only was heated in the same manner. The degree of coloring was defined as an absorbance at 480 nm using a 1 cm-cell after subtracting the absorbance of the blank test.
# [2] = Amino-carbonyl reaction with glycine; format: physicochemical; conditions: […] (w/v) saccharide, 0.5% (w/v) glycine, pH 8.0, 100° C.
# Procedure: As a control, an aqueous solution containing maltose and glycine was prepared in the same manner using maltose except for the powdery hydrous crystalline CMM. Four milliliters each of the solution was put in a glass tube, sealed and then heated at 100° C. for 30, 60, or 90 min. After cooling the solutions, the degrees of coloring of the solutions were measured to estimate the degree of amino-carbonyl reaction. The degree of coloring was defined as an absorbance at 480 nm using a 1 cm-cell.
# [3] = Reducing power by the Somogyi-Nelson method; format: physicochemical
# From the text: It was concluded that the saccharide was a non-reducing saccharide substantially.
# [4] = Concentration of CMM in saturated aqueous solution; format: physicochemical; conditions: 25° C.
# Procedure: Successively, the glass vessel was sealed, and the suspension was stirred two days with keeping the temperature at 25° C. to give a saturated solution. After removing the solid CMM by filtrating the saturated solution, the moisture content of the filtrate was measured by the drying loss method to determine the concentration of CMM in saturated solution.
# Thermal stability of CMM = format: physicochemical; conditions: 7% (w/v) CMM, 120° C.; for Purity (%): HPLC
# Procedure: A powdery hydrous crystalline CMM was dissolved in water for preparing an aqueous solution containing 7% (w/v) of CMM. Eight milliliters each of the resulting solution was pored into a glass tube, sealed closely, and then heated at 120° C. for 30 to 90 min. After cooling the solution, the degree of coloring of the solution was measured. Further, the purity of CMM in the solution was measured by HPLC. The degree of coloring was defined as an absorbance at 480 nm using a 1 cm-cell.
# [5] = Clathrating action of CMM; format: physicochemical; conditions: for strength of clathrating activity in comparison with branched cyclodextrin: on a weight basis
# From the text: One hundred grams of the aqueous solution was admixed with 1.2 g of methanol, 1.7 g of ethanol, or 2.2 g of acetic acid as flavor components for allowing CMM to clathrate the flavor components. Successively, each solution was filtrated, and the resulting filtrate was freeze-dried to remove unclathrated flavor component. As a control, “ISOELITE P”, a mixture of branched cyclodextrins commercialized by Maruha Corporation, Tokyo, Japan, which has been known to have a clathrating activity, was tested by the same procedure. In order to measure the amount of flavor component clathrated in the freeze-dried powder, 1 g of each freeze-dried powder was dissolved in 5 ml of water and admixed with 5 ml of diethylether to extract the flavor component, and the extraction was repeated once more. The amount of the extracted flavor component in diethylether was measured by gas-chromatography.
# mice = assay: Acute toxicity test; format: in vivo
# From the text: By using mice, CMM obtained by the method in Experiment 14 was orally administrated to the mice for its acute toxicity test. […] Though not so accurate, the value of LD50 of CMM was 5 g/kg-mouse weight or higher.
# rat cecal contents = assay: Test for fermentability by rat cecal contents; format: in vitro ADME, Wister-rat
# Procedure: According to the method of Oku et al., described in Journal of Nutritional Science and Vitaminology, vol. […] The cecal contents was collected under an anaerobic condition by killing a Wister-rat under anesthesia and suspended into 4-folds by volume of 0.1 M sodium bicarbonate aqueous solution, and then used for the test. CMM was added to the cecal contents by about 7% (w/w) of the weight of the cecal contents. The amounts of CMM at just after mixing and after 12 hours were determined by gas-chromatography. […] About 92% of CMM was not fermented and remained.
# From the text for Pancreas α-amylase: (§1) 43, 23-29 (1990), the digestibility of CMM by salivary α-amylase, artificial gastric juice, pancreas amylase, and small intestinal enzymes were investigated using the powdery hydrous crystalline CMM, obtained by the method in Experiment 14.
# From the text for Small intestinal enzymes: as §1
structure (smiles),measurement,setting,value
"OC[C@H]1O[C@@H]2OC[C@H]3O[C@H](O[C@H]4[C@H](O)[C@@H](O)[C@@H](OC[C@H]5O[C@H](O[C@H]1[C@H](O)[C@H]2O)[C@H](O)[C@@H](O)[C@@H]5O)O[C@@H]4CO)[C@H](O)[C@@H](O)[C@@H]3O [CMM, cyclo{>6)-α-D-glucopyranosyl-(1>4)-α-D-glucopyranosyl-(1>6)-α-D-glucopyranosyl-(1>4)-α-D-glucopyranosyl-(1>}]",Degree of coloring (A480 nm),"pH stability of CMM; pH 2.0, Acetate buffer",0
same,Purity (%),"pH stability of CMM; pH 2.0, Acetate buffer",93%
same,Degree of coloring (A480 nm),"pH stability of CMM; pH 3.0, Acetate buffer",0
same,Purity (%),"pH stability of CMM; pH 3.0, Acetate buffer",100%
same,Degree of coloring (A480 nm),"pH stability of CMM; pH 4.0, Acetate buffer",0
same,Purity (%),"pH stability of CMM; pH 4.0, Acetate buffer",100%
same,Degree of coloring (A480 nm),"pH stability of CMM; pH 5.0, Acetate buffer",0
same,Purity (%),"pH stability of CMM; pH 5.0, Acetate buffer",100%
same,Degree of coloring (A480 nm),"pH stability of CMM; pH 6.0, Tris-HCl buffer",0
same,Purity (%),"pH stability of CMM; pH 6.0, Tris-HCl buffer",100%
same,Degree of coloring (A480 nm),"pH stability of CMM; pH 7.0, Tris-HCl buffer",0
same,Purity (%),"pH stability of CMM; pH 7.0, Tris-HCl buffer",100%
same,Degree of coloring (A480 nm),"pH stability of CMM; pH 8.0, Tris-HCl buffer",0
same,Purity (%),"pH stability of CMM; pH 8.0, Tris-HCl buffer",100%
same,Degree of coloring (A480 nm),"pH stability of CMM; pH 9.0, Ammonium buffer",0
same,Purity (%),"pH stability of CMM; pH 9.0, Ammonium buffer",100%
same,Degree of coloring (A480 nm),[1]; heating time 0 min,0.00
same,Degree of coloring (A480 nm),[1]; heating time 30 min,0.00
same,Degree of coloring (A480 nm),[1]; heating time 60 min,0.00
same,Degree of coloring (A480 nm),[1]; heating time 90 min,0.00
same,Degree of coloring (A480 nm),[2]; heating time 0 min,0.00
same,Degree of coloring (A480 nm),[2]; heating time 30 min,0.00
same,Degree of coloring (A480 nm),[2]; heating time 60 min,0.00
same,Degree of coloring (A480 nm),[2]; heating time 90 min,0.00
same,reducing power,[3],less than the measurable limit
same,Degradation rate (%),Pancreas α-amylase,0%
same,saturated concentration of CMM to water,[4],about 8.0 % (w/w)
same,Degree of coloring (A480 nm),Thermal stability of CMM; heating time 0 min,0
same,Purity (%),Thermal stability of CMM; heating time 0 min,100%
same,Degree of coloring (A480 nm),Thermal stability of CMM; heating time 30 min,0
same,Purity (%),Thermal stability of CMM; heating time 30 min,100%
same,Degree of coloring (A480 nm),Thermal stability of CMM; heating time 60 min,0
same,Purity (%),Thermal stability of CMM; heating time 60 min,100%
same,Degree of coloring (A480 nm),Thermal stability of CMM; heating time 90 min,0
same,Purity (%),Thermal stability of CMM; heating time 90 min,100%
same,Degradation rate (%),Small intestinal enzymes,0%
same,strength of clathrating activity in comparison with branched cyclodextrin,[5]; acetic acid,~0.8 fold
same,strength of clathrating activity in comparison with branched cyclodextrin,[5]; ethanol,~0.5 fold
same,Amount of flavor component clathrated (mg/g-freeze-dried powder),[5]; flavor component Acetic acid,30.55 mg/g-freeze-dried powder
same,Amount of flavor component clathrated (mg/g-freeze-dried powder),[5]; flavor component Ethanol,4.20 mg/g-freeze-dried powder
same,Amount of flavor component clathrated (mg/g-freeze-dried powder),[5]; flavor component Methanol,4.30 mg/g-freeze-dried powder
same,strength of clathrating activity in comparison with branched cyclodextrin,[5]; methanol,about 1.3 folds
same,mortality,mice; oral administration at the highest possible dose,no mouse died
same,LD50,"mice; oral administration, mice, though not so accurate",≥ 5 g/kg-mouse weight
same,CMM not fermented and remained,rat cecal contents; after 12 hours,About 92%
same,concentration of CMM in the cecal contents,rat cecal contents; after 12 hours,63.0 mg/g-cecal contents
same,concentration of CMM in the cecal contents,rat cecal contents; just after adding,68.5 mg/g-cecal contents
